The target in series [1] is T1, SLO-1 (Glycine max, UniProt P08170).
T1 construct: made in house
T1 sequence (P08170 1-839): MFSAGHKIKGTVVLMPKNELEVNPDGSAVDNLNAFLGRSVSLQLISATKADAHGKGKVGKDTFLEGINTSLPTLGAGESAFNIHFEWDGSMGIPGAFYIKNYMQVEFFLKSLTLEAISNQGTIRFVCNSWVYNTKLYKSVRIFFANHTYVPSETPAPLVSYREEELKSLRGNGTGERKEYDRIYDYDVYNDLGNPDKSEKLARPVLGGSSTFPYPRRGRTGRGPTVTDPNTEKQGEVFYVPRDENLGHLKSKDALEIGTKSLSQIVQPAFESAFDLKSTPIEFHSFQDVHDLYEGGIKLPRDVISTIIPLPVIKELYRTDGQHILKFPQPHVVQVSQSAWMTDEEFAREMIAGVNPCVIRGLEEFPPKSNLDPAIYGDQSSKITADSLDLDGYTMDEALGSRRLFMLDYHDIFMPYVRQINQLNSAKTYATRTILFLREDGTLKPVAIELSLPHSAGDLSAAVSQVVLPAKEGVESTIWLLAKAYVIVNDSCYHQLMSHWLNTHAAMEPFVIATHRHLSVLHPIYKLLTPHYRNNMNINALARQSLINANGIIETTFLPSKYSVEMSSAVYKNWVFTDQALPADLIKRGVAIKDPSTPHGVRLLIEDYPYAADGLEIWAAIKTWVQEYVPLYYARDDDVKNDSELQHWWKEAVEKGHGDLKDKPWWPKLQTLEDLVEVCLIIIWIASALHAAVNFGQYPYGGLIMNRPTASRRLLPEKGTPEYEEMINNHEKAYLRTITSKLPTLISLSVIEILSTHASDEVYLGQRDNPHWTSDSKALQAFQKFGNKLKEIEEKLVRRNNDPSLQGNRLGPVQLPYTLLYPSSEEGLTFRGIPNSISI
The experiment in a line: Kinetic isotope effect (KIE) titration, SLO-1. In kind it is biochemical, soybean. To be noted: for Kd: SLO-1, 5 μM LA/D-LA, pH 9.2, read-out: KD from hyperbolic fit of KIE. How it is done: Kinetic Isotope Effect Determination. Determination of the kinetic isotope effect (KIE) was similar to that previously published by Holman and coworkers with the following modifications. Lewis et al., J. Am. Chem. Soc. (1994) 116:795-796. Lipoxygenase is added (0.12 nM SLO-1 and 12 nM 15-HLO) to a protio/per-deutero LA mixture (60 mL, 5 μM LA/D-LA), monitored at 234 nm with a P-E Lambda 4 and stopped with an acid quench (5% glacial acetic acid) at less than 5% total LA/D-LA consumption. […] The acidified reaction mixture is extracted with methylene chloride (trimethylphosphite, which quantitatively reduces the labile 13-HPOD, is not needed since both the alcohol and the peroxide have the same elution time). […] (isocratic mobile phase: 74.9% Methanol :25% H2O: 0.1% Acetic acid). […] Lewis et al., supra. […] When the percent conversion (f) to product is less than 5%, this equation simplifies to ([[…]]), where [P-H] is protio-product concentration and [So-H] is the initial protio-substrate concentration. […] et al., Reaction Rates of Isotopic Molecules (R. E. Krieger Publishing, Florida)(1987). […] Greater substrate ratios than 2:1 were not used due to the expensive nature of the per-deutero substrate. Under these conditions, the upper limit for the KIE is greater than 130 and is limited by the vanishingly small peak area of the per-deutero 13-HPOD peak relative to the negative control. This RP-HPLC based method for determining molar protio/per-deutero 13-HPOD ratios gave results identical (within experimental error) to those obtained by EI-MS. No appreciable side products at any wavelength for 15-HLO or SLO-1 were observed, indicating no reaction branching. The OS titration experiments require 5 μM LA/D-LA to record product ratios. For the 15-HLO experiments (pH 7.5), OS concentrations above 6 μM were not feasible due to large amounts of a white emulsion at the extraction interface which inhibited product recovery. This emulsion was not observed for reactions performed with SLO-1 (pH 9.2). […] All kinetic data reported were measured in triplicate on two distinct days.

Series [2] in a line: Surface tension measurements (CMC). In kind it is physicochemical. Here is the method: Surface Tension Measurements. Buffers were used which correspond to those of the kinetic measurements. Surface tension was measured as described by Harkins et al., using a thin platinum plate (perimeter 2.5 cm) and a Cahn electro-microbalance. Harkins et al., J. Am. Chem. Soc. (1937) 59:2189-2197. Various amounts of surface active agent were added to a 30 ml buffer solution and the surface tension was continuously recorded. After each addition, a sufficiently long period of time (10-30 min.) was allowed to elapse before attaining a steady value of the surface tension. Critical micelle concentration (CMC) values were obtained by plotting the measured surface tensions versus the logarithm of the concentrations of the surface-active agent and recording the intercept of the two straight lines. The point at which a deviation from the straight line, as observed in the surface tension versus log [surface-active agent] plot, was defined as the start of pre-micellular aggregate formation. Harkins et al., supra; Verhagen et al., Chem. Phys. Lipids (1978) 22:255-259.

Series [3] concerns the target T1, SLO-1. Kind of series: Steady state kinetics / inhibition studies, SLO-1. In kind it is biochemical, soybean. Here is the method:
Steady State Kinetics. Lipoxygenase rates were determined by following the formation of product at 234 nm (ε=25,000 M^−1cm^−1) with a Hewlett-Packard 8453 UV-vis spectrophotometer. The destruction of 13-HPOD by the diode array spectrophotometer were negligible under these reaction conditions. All reactions were 2 ml in volume, run at room temperature (23° C.) and constantly stirred with a rotating magnetic bar. In experiments using SLO-1, kinetic reactions were performed in 0.1 M borate (pH 9.2), while reactions using 15-HLO were performed in 25 mM HEPES (pH 7.5). Substrate solutions used in each experiment were measured for accurate LA concentration by quantitatively converting substrate to product using soybean lipoxygenase-1. Enzymatic rates were measured between 1-50 μM LA with 1-25 μM OS for SLO-1 and lower than 2 μM LA for 15-HLO. Solutions containing LA and/or OS were sonicated for 3-5 minutes before use in kinetic experiments. Rate reactions were initiated by the addition of enzyme to final concentrations of 3 nM SLO-1 (80% iron content) and 200 nM 15-HLO (15% iron content). All kinetic parameters were determined by non-linear regression using Kaleidagraph software (Abelbeck).

The target in the next series is T2, 15-HLO (Homo sapiens, UniProt P16050).
T2 construct: made in house
T2 sequence (P16050 1-662): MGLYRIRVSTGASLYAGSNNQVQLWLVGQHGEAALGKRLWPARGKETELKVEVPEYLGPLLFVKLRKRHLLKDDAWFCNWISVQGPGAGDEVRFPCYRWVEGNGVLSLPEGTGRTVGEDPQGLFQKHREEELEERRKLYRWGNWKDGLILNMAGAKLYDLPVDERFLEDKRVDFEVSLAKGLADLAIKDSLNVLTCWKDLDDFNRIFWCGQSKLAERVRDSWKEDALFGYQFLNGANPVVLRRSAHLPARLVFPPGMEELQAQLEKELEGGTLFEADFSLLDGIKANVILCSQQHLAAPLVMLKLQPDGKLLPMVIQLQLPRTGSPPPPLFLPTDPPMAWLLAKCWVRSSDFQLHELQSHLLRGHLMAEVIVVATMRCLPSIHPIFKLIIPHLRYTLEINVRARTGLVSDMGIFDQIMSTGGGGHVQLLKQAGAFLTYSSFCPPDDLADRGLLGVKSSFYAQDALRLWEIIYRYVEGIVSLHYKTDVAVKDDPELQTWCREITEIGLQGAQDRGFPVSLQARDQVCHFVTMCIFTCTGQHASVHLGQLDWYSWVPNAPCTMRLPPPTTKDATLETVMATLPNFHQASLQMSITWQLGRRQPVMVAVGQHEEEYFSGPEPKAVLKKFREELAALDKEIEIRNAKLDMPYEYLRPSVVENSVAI
Kind of series: Kinetic isotope effect (KIE) titration, 15-HLO. It is filed as biochemical. How it is done:
Kinetic Isotope Effect Determination. Determination of the kinetic isotope effect (KIE) was similar to that previously published by Holman and coworkers with the following modifications. Lewis et al., J. Am. Chem. Soc. (1994) 116:795-796. Lipoxygenase is added (0.12 nM SLO-1 and 12 nM 15-HLO) to a protio/per-deutero LA mixture (60 mL, 5 μM LA/D-LA), monitored at 234 nm with a P-E Lambda 4 and stopped with an acid quench (5% glacial acetic acid) at less than 5% total LA/D-LA consumption. It is important to note that diode array spectrophotometers degrade 13-hydroperoxy-9,11-(Z,E)-octadecadienoic acid (13-HPOD) and care should be taken if the reaction time length is longer than 5 minutes. The acidified reaction mixture is extracted with methylene chloride (trimethylphosphite, which quantitatively reduces the labile 13-HPOD, is not needed since both the alcohol and the peroxide have the same elution time). The methylene chloride layer is evaporated to dryness under vacuum, reconstituted in 50 μL running buffer, injected onto a C18 column (Higgins Analytical, 5 micron, 250×4.6 mm), and eluted at 1 mL/min. (isocratic mobile phase: 74.9% Methanol :25% H2O: 0.1% Acetic acid). […] All kinetic data reported were measured in triplicate on two distinct days.

Structures can show the parent of a compound that is named as a salt. Where two headings read alike, the source gives them in different places.

Data on four molecules can be found in patent US6479546B1, “Allosteric inhibitors of lipoxygenase” (The Regents of the University of California, priority 2000, dated 2002).

With `CCCCCCCCCCCCOS(=O)(=O)[O-].[Na+]` [SDS], the “effect on KIE” value at SLO-1 [1] (control for non-specific surfactant binding) is “no increase in the KIE”.

As to `CCCCC/C=C\C/C=C\CCCCCCCC(=O)O` [LA, Linoleic Acid], the CMC worked out at 40 ± 10 µM in series [2] (25 mM HEPES (pH 7.5)) and 150 ± 10 µM in series [2] (0.1 M borate (pH 9.2)). On SLO-1 [3] (SLO-1, no appreciable substrate inhibition below 30 μM LA, read-out: KD (allosteric site)), the Kd (in general, the equilibrium constant for the complex coming apart) was > 30 µM.

For `CCCCCCCC/C=C\CCCCCCCCOS(=O)(=O)O` [OS, (Z)-9-octadecenyl sulfate], the equilibrium dissociation constant (Kd) was found to be 400 ± 50 nM at 15-HLO (5 μM LA/D-LA, pH 7.5, read-out: KD from hyperbolic fit of KIE); 450 ± 50 nM on 15-HLO (conclusion, unit inferred, read-out: KD); 0.6 ± 0.2 µM at SLO-1 [1]. In addition, the “lessens the rate of catalysis (k2 decreases)” value at SLO-1 [3] (SLO-1) is reported as 15%. Also, the Ki was 450 ± 160 nM at SLO-1 [3] (fit to Km (app) saturation curve, Eq. 3, read-out: Ki); 860 ± 110 nM on SLO-1 [3] (fit to kcat/Km data, Eq. 4, β approximated 0.85, read-out: Ki); ≥ 100000 nM at SLO-1 [3] (simulation Scheme 3, Eqs. 7 and 8, read-out: Kii (catalytic site), minimal value).

In the case of `CCCCCCCC/C=C\CCCCCCCC(=O)O` [OA, oleic acid], the Kd on SLO-1 [1] came out at 36 ± 14 µM.
